# Patent US20240228482A1, “COMPOUNDS, COMPOSITIONS AND METHODS OF TREATING CANCER” (HOTSPOT THERAPEUTICS, INC., priority 2021, published 2024)
# Biological target: T1, CBL-B (Homo sapiens, UniProt Q13191)
# T1 construct: GST
# Assay: CBL-B TR-FRET IC50 screening (E1/E2 ubiquitination, Biotin-Ubiquitin, Anti GST-Tb donor / Streptavidin-d2 acceptor)
# Assay type: biochemical
# Conditions: CBL-B 10 nM final; 11-point titration from 100 uM; binned A-F; read-out: CBL-B TR-FRET activity IC50
# T1 sequence (Q13191 whole entry): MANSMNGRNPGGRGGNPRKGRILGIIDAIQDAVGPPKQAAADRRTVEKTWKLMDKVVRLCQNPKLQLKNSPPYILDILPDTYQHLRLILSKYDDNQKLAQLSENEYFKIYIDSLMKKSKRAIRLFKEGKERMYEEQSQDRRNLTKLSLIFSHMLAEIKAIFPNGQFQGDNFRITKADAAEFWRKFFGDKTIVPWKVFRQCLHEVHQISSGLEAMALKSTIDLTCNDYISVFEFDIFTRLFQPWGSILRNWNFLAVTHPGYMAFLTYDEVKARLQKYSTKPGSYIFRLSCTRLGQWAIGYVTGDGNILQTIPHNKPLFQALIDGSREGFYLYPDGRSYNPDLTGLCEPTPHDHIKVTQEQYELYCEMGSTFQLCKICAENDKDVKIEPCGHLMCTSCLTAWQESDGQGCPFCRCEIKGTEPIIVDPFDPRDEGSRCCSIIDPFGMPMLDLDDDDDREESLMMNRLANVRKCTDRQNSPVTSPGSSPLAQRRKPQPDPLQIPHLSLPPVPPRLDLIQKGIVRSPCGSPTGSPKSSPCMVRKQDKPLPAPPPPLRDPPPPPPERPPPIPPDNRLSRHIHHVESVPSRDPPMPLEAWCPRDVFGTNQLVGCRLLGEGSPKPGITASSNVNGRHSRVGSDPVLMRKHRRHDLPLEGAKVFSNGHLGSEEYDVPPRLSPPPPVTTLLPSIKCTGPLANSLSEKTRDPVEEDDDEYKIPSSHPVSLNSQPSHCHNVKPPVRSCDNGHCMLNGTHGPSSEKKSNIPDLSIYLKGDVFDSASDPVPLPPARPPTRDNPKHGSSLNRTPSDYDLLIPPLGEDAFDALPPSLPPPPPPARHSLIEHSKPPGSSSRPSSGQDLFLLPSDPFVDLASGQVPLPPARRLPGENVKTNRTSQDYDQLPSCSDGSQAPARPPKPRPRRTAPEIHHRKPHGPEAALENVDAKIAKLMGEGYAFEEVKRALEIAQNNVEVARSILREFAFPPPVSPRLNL
row,IC50,SMILES
1,3000 to 10000 nM,"C[C@H]1CCCN(Cc2cc(C(F)(F)F)c3cn(-c4cccc([C@H](c5nncn5C)N5CCC5)c4)c(=O)n3c2)C1 (single isomer, unassigned) [Compound 367]"
2,< 100 nM,"CO[C@@H]1CCCCN(Cc2cc(C(F)(F)F)c3cn(-c4cccc([C@H](c5nncn5C)C5CCC5)c4)c(=O)n3c2)C1 (single isomer, unassigned) [Compound 262]"
3,301 to 1000 nM,C[C@H]1CCCN(Cc2cc(C(F)(F)F)c3cn(-c4cccc([C@@H](c5nncn5C)C5CCC5)c4)c(=O)n3c2)C1 [Compound 86]
4,> 10000 nM,"C[C@H]1CCCN(Cc2cc(C(F)(F)F)c3cn(-c4cccc([C@@H](c5nncn5C)[C@H]5C[C@H](CO)C5)c4)c(=O)n3c2)C1 (single isomer, unassigned) [Compound 355]"
5,< 100 nM,Cn1cnnc1[C@H](c1cccc(-n2cc3c(C(F)(F)F)cc(CN4CCN(C=O)CC4)cn3c2=O)c1)C1CCC1 [Compound 340_P1]
6,< 100 nM,C[C@@H]1CCN(Cc2cc(C(F)(F)F)c3cn(-c4cccc([C@H](c5nncn5C)C5CCC5)c4)c(=O)n3c2)C1 [Compound 248]
7,1000 to 3000 nM,C[C@H]1CCCN1Cc1cc(C(F)(F)F)c2cn(-c3cccc([C@@H](c4nncn4C)C4CCC4)c3)c(=O)n2c1 [Compound 380_P1]

# Further lines, the molecule ahead of its results:
row,SMILES,IC50
1,Cn1cnnc1CC1(c2cccc(-n3cc4c(C(F)(F)F)cc(CN5CCCC[C@@H](O)C5)cn4c3=O)c2)COC1 [Compound 167],< 100 nM
2,"Cn1cnnc1CC1(c2cccc(-n3cc4c(C(F)(F)F)cc(CN5CCCC(O)CC5)cn4c3=O)c2)COC1 (single isomer, unassigned) [Compound 176]",< 100 nM
3,C[C@H](Sc1nncn1C)c1cccc(-n2cc3c(C(F)(F)F)cccn3c2=O)c1 [Compound 6],> 10000 nM
4,Cn1cnnc1CC1(c2cccc(-n3cc4c(C(F)(F)F)cc(COCCO)cn4c3=O)c2)COC1 [Compound 90],100 to 300 nM
5,Cn1cnnc1C(c1cccc(-n2cc3c(C(F)(F)F)cccn3c2=O)c1)C1COC1 (stereo not shown) [Compound 141],1000 to 3000 nM
6,Cn1cnnc1[C@@H](c1cccc(-n2cc3c(C(F)(F)F)cc(CNC4COC4)cn3c2=O)c1)C1CCC1 [Compound 324],< 100 nM
7,Cn1cnnc1CC1(c2cccc(-n3cc4c(C=O)cccn4c3=O)c2)COC1 [Compound 94],3000 to 10000 nM
8,C[C@H]1CCCN(Cc2cc(C(F)(F)F)c3cn(-c4cc(C#N)cc(C5(Cc6nncn6C)COC5)c4)c(=O)n3c2)C1 [Compound 183],< 100 nM
9,Cn1cnnc1C(F)(F)[C@](C)(F)c1cccc(-n2cc3c(C(F)(F)F)cc(CN4CCC(F)(F)C4)cn3c2=O)c1 [Compound 35],3000 to 10000 nM
10,C[C@@H]1CN(Cc2cc(C(F)(F)F)c3cn(-c4cccc([C@@H](c5nncs5)C5CCC5)c4)c(=O)n3c2)CCO1 [Compound 300],1000 to 3000 nM
11,"Cn1cnnc1C[C@H]1CCc2c1cccc2-n1cc2c(C(F)(F)F)cccn2c1=O (single isomer, unassigned) [Compound 16]",> 10000 nM
12,Cn1cnnc1CC1(c2cccc(-n3cc4c(C(F)(F)F)cc(CN5CC[C@@H](O)C5)cn4c3=O)c2)COC1 [Compound 130],100 to 300 nM

# Same assay, conditions: second part of Table 2 (head 'Patent Cmpd No / Updated Activity'); same CBL-B TR-FRET IC50 bins A-F; read-out: Updated Activity
row,IC50,SMILES
1,< 100 nM,C[C@H]1CCN1Cc1cc(C(F)(F)F)c2cn(-c3cccc([C@H](c4nncn4C)C4CCC4)c3)c(=O)n2c1 [Compound 565_P2]
2,> 10000 nM,"COC1CN([C@H](c2cccc(-n3cc4c(C(F)(F)F)cc(CN5CCC[C@H](C)C5)cn4c3=O)c2)c2nncn2C)C1 (single isomer, unassigned) [Compound 387]"
3,< 100 nM,C[C@H]1COCCN1Cc1cc(C(F)(F)F)c2cn(-c3cccc([C@H](c4nncn4C)C4CCC4)c3)c(=O)n2c1 [Compound 488]
4,> 10000 nM,"C[C@H]1CCCN(Cc2cc(C(F)(F)F)c3cn(-c4cccc([C@@H](c5nncn5C)N5CC(O)C5)c4)c(=O)n3c2)C1 (single isomer, unassigned) [Compound 407]"
5,3000 to 10000 nM,"Cc1cnnn1[C@@H](c1cccc(-n2cc3c(C(F)(F)F)cc(CN4CCC[C@H](C)C4)cn3c2=O)c1)C1CCC1 (single isomer, unassigned) [Compound 583]"

# The next lines start with the molecule.
row,SMILES,IC50
1,"Cn1cnnc1[C@H](c1cc(C#N)cc(-n2cc3c(C(F)(F)F)cccn3c2=O)c1)C1CCC1 (single isomer, unassigned) [Compound 452]",> 10000 nM
2,C[C@H]1CCCN(Cc2cc(C(F)(F)F)c3cn(-c4cccc(C5(c6nncs6)CC(C)(C)C5)c4)c(=O)n3c2)C1 [Compound 624],301 to 1000 nM
3,"Cn1cnnc1[C@@H](c1cc(-c2ccns2)cc(-n2cc3c(C(F)(F)F)cccn3c2=O)c1)C1CCC1 (single isomer, unassigned) [Compound 459]",> 10000 nM
4,C[C@H]1CCCN(Cc2cc(C(F)(F)F)c3cn(-c4cccc([C@H](c5n[nH]cc5C#N)C5CCC5)c4)c(=O)n3c2)C1 [Compound 567],< 100 nM
5,"C[C@@H]1CN(Cc2cc(C(F)(F)F)c3cn(-c4cc(F)cc([C@H](c5nncn5C)C5CCC5)c4)c(=O)n3c2)CCO1 (single isomer, unassigned) [Compound 511]",> 10000 nM
6,"C[C@@H](c1cc(C(F)(F)F)c2cn(-c3cccc([C@H](c4nncn4C)C4CCC4)c3)c(=O)n2c1)N1CC[C@@H](F)C1 (single isomer, unassigned) [Compound 501]",< 100 nM
7,"Cn1cnnc1[C@H](c1cc(-c2ccnnc2)cc(-n2cc3c(C(F)(F)F)cccn3c2=O)c1)C1CCC1 (single isomer, unassigned) [Compound 443]",> 10000 nM
